Results published in patent publication US7592320B2, “Cancer gene therapy based on translational control of a suicide gene” (priority 2001, dated 2009).
Like-named read-outs stand apart in the source and are kept apart here.

How the values were obtained:
MCF-10A = details: GCV 14 days
MM2MT = experiment: cells; details: Mus musculus, 336 h, GCV 14 days
Procedure: (§1) Each vector was then stably transfected into either MM3MG cells (ATCC No.CRL6376, a normal mouse mammary line) or MM2MT cells (ATCC No. CRL6373, a mouse mammary carcinoma line). Unless otherwise stated, all cell lines were purchased from the American Type Culture Collection (“ATCC”), Manassas, Va. To overexpress eIF4E (referred to as eIF4E-S, for “sense”), the eIF4E cDNA was cloned into KpnI and NotI sites of the pREP7 episomal vector (Invitrogen, Carlsbad, Calif.). To reduce the eIF4E expression (referred to as eIF4E-AS, for “antisense”), an antisense eIF4E construct was subcloned into the pREP7 vector as described in A. De Benedetti et al., “Expression of antisense RNA against initiation factor eIF-4E mRNA in HeLa cells results in lengthened cell division times, diminished translation rates, and reduced levels of both eIF-4E and the P220 component of eIF-4F,” Mol. Cell. Biol., vol. 11, pp. 5435-5445 (1991).
(§2) All transfections were performed with the GenePORTER reagent (Gene Therapy Systems, San Diego, Calif.). Stable cell lines were obtained by selection with G418 for the BK constructs, and Hygromycin B for the pREP7 vectors.

MM3MG = experiment: cells; details: for EC50: Mus musculus, MM3MG, 336 h, GCV 14 days
Procedure: as §1, §2

MM2MT tumors = experiment: Tumor ablation, MM2MT mammary fat pad tumors (about 40 mm^3) in athymic mice; type: in vivo, BALB/c athymic nu/nu mice; details: GCV administered alone (data not shown)
Procedure: 10^6 MM2MT cells were suspended in 0.1 ml serum and antibiotic-free DMEM medium and injected subcutaneously into the mammary fat pad. Tumor latency was determined as the time necessary for the tumors to grow to 0.5 cm (largest diameter). Tumor doubling times were determined by daily measuring the smallest (d) and the largest (D) diameters with calipers, and estimating the volume using the formula, V=D×d^2×0.52. The reported numbers are the mean and standard deviation of the tumor volumes for each group.
When the tumor volumes were approximately 40 mm^3, the mice were randomly separated into two groups, and either the BK-TK or the BK-UTK vectors were injected as a liposomal complex near the tumor. To make the liposomal complex for transfection of primary tumors, 10 μg of endotoxin-free purified (QIAGEN, Inc., Valencia, Calif.) plasmid DNA was diluted in 50 μl medium without serum or antibiotics. In a separate tube, 50 μl of GenePORTER reagent (Gene Therapy Systems, San Diego, Calif.) was mixed with 50 μl serum and antibiotic-free medium. The two tubes were then combined, briefly vortexed, and allowed to incubate at room temperature for 20 minutes, after which the resulting liposome complex was injected between the tumor and the skin of the mouse.
One of the 6 mice in each group had no palpable tumor remaining at the end of the 10-day treatment.

MCF7 = details: GCV 14 days
MDA-435S = details: GCV 14 days
MDA-231 = details: for ED50: GCV 14 days

## Nc1nc(O)c2ncn(COC(CO)CO)c2n1 [GCV, Ganciclovir]
MCF-10A; MCF-10A untransfected cells
  ED50: 6000 µM
MCF-10A; MCF-10A-TK cells
  ED50: 300 µM
MCF-10A; MCF-10A-UTK cells
  ED50: 5500 µM
MM2MT; read-out: ED50, MM2MT untransfected cells
  EC50: 95 µM
MM2MT; read-out: ED50, MM2MT-TK cells
  EC50: 0.095 µM
MM2MT; read-out: ED50, MM2MT-TK/4E-AS cells
  EC50: 0.15 µM
MM2MT; read-out: ED50, MM2MT-UTK cells
  EC50: 0.5 µM
MM2MT; read-out: ED50, MM2MT-UTK/4E-AS cells
  EC50: 55 µM
MM3MG; MM3MG-TK (normal) cells, 14 days
  GCV concentration to which cells were sensitive (dose-response curve): 0.1 µM
MM3MG; read-out: ED50, MM3MG untransfected cells, concentration that kills 50% of the cells
  EC50: 200 µM
MM3MG; read-out: ED50, MM3MG-TK cells
  EC50: 0.3 µM
MM3MG; read-out: ED50, MM3MG-UTK cells
  EC50: 75 µM
MM3MG; read-out: ED50, MM3MG-UTK/4E-AS cells (so in the source)
  EC50: 0.9 µM
MM3MG; untransfected MM3MG cells, 14 days
  GCV concentration at which cells were non-specifically inhibited: 200 µM
MM2MT tumors
  effect on the growth of MM2MT tumors: no effect
MCF7; MCF7-TK cells
  ED50: 20 µM
MCF7; MCF7-UTK cells
  ED50: 10 µM
MCF7; MCF7 untransfected cells
  ED50: 6000 µM
MDA-435S; MDA-435S untransfected cells
  ED50: 350 µM
MDA-435S; MDA-435S-TK cells
  ED50: 15 µM
MDA-435S; MDA-435S-UTK cells
  ED50: 15 µM
MDA-231; MDA-231-TK and MDA-231-UTK cells, otherwise insensitive to GCV
  GCV concentration of non-specific toxicity: 5 mM
MDA-231; MDA-231-TK cells
  ED50: 4000 µM
MDA-231; MDA-231-UTK cells
  ED50: 4000 µM
MDA-231; MDA-231 untransfected cells
  ED50: 6000 µM
